# Read-outs that look alike come from different tables or passages of the source.
# B1: 5ZRF DNA oligo (FAM) (dsDNA)
# DNA 1: AGCCGAGCTGCAGCTCGGCT
# DNA 2: AGCCGAGCTGCAGCTCGGCT
# Legend:
# Solubility by LC/MS/MS = assay type: physicochemical; conditions: for solubility at 1 h: kinetic from dmso stock
# Experimental: Stock solutions of the tested compounds at 50 mM in dimethyl sulfoxide (DMSO) were diluted 50-fold in methanol (MeOH), Roswell Park Memorial Institute-1640 (RPMI1640), plus 5% charcoal-stripped serum (CSS) from Sigma-Aldrich (media) and phosphate-buffered saline (PBS), and vortexed at room temperature for 1 h at 800 rpm. The resulting solutions were centrifuged at 20,000× g for 5 min, and the saturated supernatants were diluted 40-fold in acetonitrile. The resultant solutions were subjected to LC/MS/MS to determine the solubility.
# human TOP2A(431-1193) [1] = molecular target: T1, human TOP2A(431-1193) (Homo sapiens, UniProt P11388); test: Fluorescence polarization (FP) assay of TOP2A-DNA interaction; assay type: binding; conditions: 500 nM protein, 0.01-200 µM compound
# T1 construct: 6xHis (N); made in house; host or cells: E. coli BL21 (DE3)
# T1 sequence (P11388 431-1193): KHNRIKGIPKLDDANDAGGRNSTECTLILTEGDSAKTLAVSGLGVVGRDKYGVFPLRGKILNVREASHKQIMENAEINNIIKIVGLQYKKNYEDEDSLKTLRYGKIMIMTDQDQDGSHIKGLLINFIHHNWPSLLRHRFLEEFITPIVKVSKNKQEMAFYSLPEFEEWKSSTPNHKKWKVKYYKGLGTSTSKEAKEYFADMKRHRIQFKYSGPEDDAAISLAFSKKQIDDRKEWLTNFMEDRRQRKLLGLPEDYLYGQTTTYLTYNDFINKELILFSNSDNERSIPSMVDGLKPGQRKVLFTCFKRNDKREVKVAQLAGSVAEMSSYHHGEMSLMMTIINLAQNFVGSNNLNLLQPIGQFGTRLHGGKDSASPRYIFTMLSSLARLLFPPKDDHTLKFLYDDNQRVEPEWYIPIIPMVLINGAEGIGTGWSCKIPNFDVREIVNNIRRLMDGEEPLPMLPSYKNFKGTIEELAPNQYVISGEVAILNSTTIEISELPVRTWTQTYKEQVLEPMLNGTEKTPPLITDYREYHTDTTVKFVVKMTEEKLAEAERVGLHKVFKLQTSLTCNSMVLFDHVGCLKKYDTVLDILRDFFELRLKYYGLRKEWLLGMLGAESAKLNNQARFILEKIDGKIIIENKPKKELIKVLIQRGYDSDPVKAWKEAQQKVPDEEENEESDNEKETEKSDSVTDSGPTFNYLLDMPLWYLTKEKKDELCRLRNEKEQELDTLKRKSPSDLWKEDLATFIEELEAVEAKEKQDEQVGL
# Experimental: Fluorescent polarization assay was performed in Corning® Low Volume 384-well Black Flat Bottom microplate. […] Triplicate reactions were transferred onto the microplate and incubated at room temperature for 20 min. Fluorescence polarization (FP) measurements were taken by Tecan Infinite F500 with the excitation wavelength of 485 nm and emission wavelength of 535 nm.
# (§1) (A) EMSA was performed by purified full-length TOP2A or TOP2B proteins at a contraction of 300 nM with IRDay700 labeled 5ZRF DNA oligo at a concentration of 100 nM in the presence of −/+200 µM of ICRF193, T60, T637, and T638. […] Reactions were subjected to fluorescence […], which were detected by using the Multimode Microplate Reader (Infinite F500). (D) DNA cleavage assays were performed using full-length human TOP2A and TOP2B incubated with the supercoiled pHOT plasmid in the presence of 200 µM of etoposide plus 1, 100, or 200 µM of ICRF193, T60, T637, and T638. Reactions were separated on a DNA gel with ethidium bromide. All experiments were repeated three times, and one representative image was shown. Note: N, nicked DNA; L, linear DNA; and SC, supercoiled DNA.
# in vitro = conditions: mouse, liver microsomes, pH 7.4
# Experimental: The reaction was initiated by adding NADPH, followed by incubation at 37 °C. […] The samples were then vortexed and centrifuged at 16,000 rpm for 10 min at 4 °C. The supernatants were collected and analyzed by LC/MS/MS to determine the remaining percentage and the half-life (t1/2) by integrating compound peaks and fitting the resulting AUC values and time points to a one-phase decay equation.
# K562 leukemia cells = test: K562 cell proliferation (MTS assay); conditions: for inhibition at 20 µM: Homo sapiens, read-out: Maximum cell proliferation inhibition; for Maximum cell proliferation inhibition: K562, up to 100 uM
# Experimental: (§5) (A) K562 cells were treated with 0, 0.5, 1, 5, 10, 15, and 20 uM of T60 or 0, 0.5, 1, 5, 10, 15, 20, 50, and 100 uM of T637 and T638 for 24, 48, or 72 h. […] (B) NCI-H446 small cell lung cancer line and Hela cervical cancer line were treated with 0, 0.5, 1, 5, 10, 15, and 20 uM of T60 or 0, 0.5, 1, 5, 10, 15, 20, 50, and 100 uM of T637 and T638 for five days. Cell growth rates were measured by using Incucyte^TM. (C) K562 cells were treated with 0, 5, 10, 15, and 20 uM of T60, T637, or T638 for 48 h. Cytotoxicity was evaluated by measuring the LDH levels from the culture media. (D) K562 cells were treated with the vehicle or 10–20 µM of etoposide, T60, T637, or T638 for 4 h. Immunoblotting measured p-H2AXγ levels in cells with vinculin as a loading control.
# TOP2A [2] = molecular target: T2, TOP2A (Homo sapiens, UniProt P11388); test: K-DNA decatenation assay, TOP2A; assay type: biochemical; conditions: 0.01-200 uM, three biological repeats
# T2 sequence (P11388 whole entry): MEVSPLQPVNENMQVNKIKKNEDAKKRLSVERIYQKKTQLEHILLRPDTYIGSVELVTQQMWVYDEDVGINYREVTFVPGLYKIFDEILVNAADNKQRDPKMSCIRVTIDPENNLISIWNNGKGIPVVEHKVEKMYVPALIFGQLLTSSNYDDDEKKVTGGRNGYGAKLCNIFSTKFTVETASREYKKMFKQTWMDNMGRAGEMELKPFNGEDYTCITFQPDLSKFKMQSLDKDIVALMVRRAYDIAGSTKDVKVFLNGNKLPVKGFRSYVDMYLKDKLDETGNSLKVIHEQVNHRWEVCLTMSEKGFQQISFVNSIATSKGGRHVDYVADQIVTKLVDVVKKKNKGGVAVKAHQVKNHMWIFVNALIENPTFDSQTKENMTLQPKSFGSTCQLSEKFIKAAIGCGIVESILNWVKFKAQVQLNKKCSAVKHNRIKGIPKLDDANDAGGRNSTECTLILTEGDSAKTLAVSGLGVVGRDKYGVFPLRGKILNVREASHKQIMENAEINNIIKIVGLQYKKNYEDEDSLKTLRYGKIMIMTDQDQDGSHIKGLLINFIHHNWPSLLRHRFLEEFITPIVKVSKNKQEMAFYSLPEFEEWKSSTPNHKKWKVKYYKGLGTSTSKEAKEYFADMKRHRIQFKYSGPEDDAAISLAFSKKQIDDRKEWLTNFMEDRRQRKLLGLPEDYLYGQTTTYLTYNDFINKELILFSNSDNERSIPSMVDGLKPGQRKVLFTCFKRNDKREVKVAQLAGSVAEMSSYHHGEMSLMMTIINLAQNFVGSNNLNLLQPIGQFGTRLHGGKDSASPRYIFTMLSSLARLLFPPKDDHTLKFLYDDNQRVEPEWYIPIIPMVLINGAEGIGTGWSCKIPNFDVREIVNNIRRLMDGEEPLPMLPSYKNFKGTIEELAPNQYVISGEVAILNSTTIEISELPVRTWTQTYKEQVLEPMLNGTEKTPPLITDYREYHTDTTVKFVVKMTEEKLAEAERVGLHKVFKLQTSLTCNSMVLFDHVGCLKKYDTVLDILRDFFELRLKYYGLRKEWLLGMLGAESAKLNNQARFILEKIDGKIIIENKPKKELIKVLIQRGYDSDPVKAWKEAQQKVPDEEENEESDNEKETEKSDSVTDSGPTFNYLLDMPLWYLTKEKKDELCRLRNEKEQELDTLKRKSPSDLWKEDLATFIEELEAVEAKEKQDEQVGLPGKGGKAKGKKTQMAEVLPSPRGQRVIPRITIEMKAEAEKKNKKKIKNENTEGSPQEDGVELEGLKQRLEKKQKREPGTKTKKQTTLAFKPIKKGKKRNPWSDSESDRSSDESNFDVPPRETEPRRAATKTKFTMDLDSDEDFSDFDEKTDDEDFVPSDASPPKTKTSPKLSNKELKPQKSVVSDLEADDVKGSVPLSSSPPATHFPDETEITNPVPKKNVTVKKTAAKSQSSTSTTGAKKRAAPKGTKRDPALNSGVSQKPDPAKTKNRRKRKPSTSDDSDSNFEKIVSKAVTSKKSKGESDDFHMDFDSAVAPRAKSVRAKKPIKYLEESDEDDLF
# Experimental: (§2) Figure 2 T637 and T638 are TOP2A inhibitors. (A) K-DNA decatenation assays and (B) supercoiled plasmid DNA relaxation assays are used to measure TOP2A enzyme activity in the presence of 0.01–200 uM T637 or T638. Three biological repeats were performed with each concentration of the compounds, and the densitometry of the D-DNA bands from (A) and the SC bands from (B) was used to establish an inhibition curve for IC50 calculation.
# TOP2B [3] = molecular target: T3, TOP2B (Homo sapiens, UniProt Q02880); test: K-DNA decatenation assay, TOP2B; assay type: biochemical; conditions: 0.01-200 uM, three biological repeats
# T3 sequence (Q02880 whole entry): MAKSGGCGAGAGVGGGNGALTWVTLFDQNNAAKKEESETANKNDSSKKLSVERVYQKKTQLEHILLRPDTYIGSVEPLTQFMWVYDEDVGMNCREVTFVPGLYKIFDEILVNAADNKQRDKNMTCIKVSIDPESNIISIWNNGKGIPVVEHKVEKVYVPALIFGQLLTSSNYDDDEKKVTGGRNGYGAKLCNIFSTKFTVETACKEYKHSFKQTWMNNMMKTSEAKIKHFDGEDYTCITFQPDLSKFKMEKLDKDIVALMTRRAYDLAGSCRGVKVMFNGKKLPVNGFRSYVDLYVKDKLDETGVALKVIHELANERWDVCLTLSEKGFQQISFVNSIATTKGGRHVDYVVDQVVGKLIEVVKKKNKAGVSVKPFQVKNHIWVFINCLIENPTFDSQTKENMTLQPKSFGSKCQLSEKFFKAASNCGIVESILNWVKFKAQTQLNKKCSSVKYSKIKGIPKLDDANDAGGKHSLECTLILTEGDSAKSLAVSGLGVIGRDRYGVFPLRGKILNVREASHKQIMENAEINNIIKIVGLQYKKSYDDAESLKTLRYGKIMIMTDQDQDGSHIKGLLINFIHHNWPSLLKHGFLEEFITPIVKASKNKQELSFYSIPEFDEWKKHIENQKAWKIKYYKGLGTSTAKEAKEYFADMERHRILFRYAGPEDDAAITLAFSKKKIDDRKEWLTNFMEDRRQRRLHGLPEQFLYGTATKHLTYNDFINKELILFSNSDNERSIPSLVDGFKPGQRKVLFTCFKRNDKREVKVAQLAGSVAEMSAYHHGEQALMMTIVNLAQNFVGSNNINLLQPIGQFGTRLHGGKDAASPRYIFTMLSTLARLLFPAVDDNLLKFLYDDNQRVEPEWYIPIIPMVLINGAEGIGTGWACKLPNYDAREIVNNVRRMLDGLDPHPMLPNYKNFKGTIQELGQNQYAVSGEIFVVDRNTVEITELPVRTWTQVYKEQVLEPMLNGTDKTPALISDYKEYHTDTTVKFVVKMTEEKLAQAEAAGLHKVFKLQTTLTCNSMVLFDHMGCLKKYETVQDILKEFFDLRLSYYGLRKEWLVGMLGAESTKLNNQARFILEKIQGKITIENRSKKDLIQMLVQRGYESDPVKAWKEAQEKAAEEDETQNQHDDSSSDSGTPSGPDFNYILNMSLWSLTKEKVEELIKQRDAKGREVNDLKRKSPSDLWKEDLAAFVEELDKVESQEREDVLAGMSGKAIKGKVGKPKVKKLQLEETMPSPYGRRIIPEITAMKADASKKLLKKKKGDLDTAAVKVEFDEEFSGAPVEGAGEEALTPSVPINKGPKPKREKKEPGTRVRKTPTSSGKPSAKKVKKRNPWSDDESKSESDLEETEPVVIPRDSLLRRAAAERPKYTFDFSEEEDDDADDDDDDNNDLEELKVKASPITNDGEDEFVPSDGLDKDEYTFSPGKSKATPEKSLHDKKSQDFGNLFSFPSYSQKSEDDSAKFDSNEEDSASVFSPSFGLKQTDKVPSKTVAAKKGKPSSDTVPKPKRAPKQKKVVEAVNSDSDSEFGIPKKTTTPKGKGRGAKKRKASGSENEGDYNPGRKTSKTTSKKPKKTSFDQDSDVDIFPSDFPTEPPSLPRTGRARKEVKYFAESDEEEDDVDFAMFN
# Experimental: (§3) Figure 3 T637 and T638 are TOP2B inhibitors. (A) K-DNA decatenation assays and (B) supercoiled plasmid DNA relaxation assays are used to measure TOP2B activity in the presence of 0.01–200 uM T637 or T638. Three biological repeats were performed with each concentration of the compounds, and the densitometry of the D-DNA bands from (A) and the SC bands from (B) was used to establish an inhibition curve for IC50 calculation.
# full-length TOP2B [4] = molecular target: T4, full-length TOP2B (Homo sapiens, UniProt Q02880); test: EMSA, full-length TOP2B with 5ZRF DNA oligo; assay type: binding; parameters: EMSA was performed by purified full-length TOP2A or TOP2B proteins; conditions: 200 µM compound, 300 nM protein, 100 nM oligo
# T4 sequence (Q02880 whole entry): as above
# Experimental: as §1
# TOP2B [5] = molecular target: T3, TOP2B; test: Supercoiled plasmid DNA relaxation assay, TOP2B; assay type: biochemical; conditions: 0.01-200 uM, three biological repeats
# Experimental: as §3
# salmon sperm DNA = test: Ethidium bromide displacement assay; assay type: binding; conditions: 100 µg/mL salmon sperm DNA, 2 µg/mL ethidium bromide
# Experimental: (§4) (A) Ethidium bromide displacement assays were performed by mixing 100 µg/mL salmon sperm DNA with −/+2 µg/mL ethidium bromide and the indicated compounds. Reactions were subjected to fluorescence emission of 590 nm and excitation of 535 nm. Obtained signals were detected by using the Multimode Microplate Reader (Infinite F500). […] Reactions were subjected to 5–20% LED/excitation power and medium MST power using premium capillaries. Obtained signals were detected by using the Monolith NT.115 system. The change in thermophoresis is expressed as the change in the normalized fluorescence (ΔFnorm). MST assays were repeated with two control compounds, enzalutamide (Enza) and merbarone.
# K562 cells [6] = test: Cytotoxicity by LDH release; conditions: for Cytotoxicity (LDH release), in words: K562, 0-20 uM, 48 h
# Experimental: as §5
# [7] = Crystal formation (precipitation) in cell cultures; assay type: physicochemical
# Experimental: Both T637 and T638 have improved solubility in aqueous solution and culture media compared to T60 (Figure 1). […] When cells are growing in the culture media and treated with T60 at concentrations ≥50 uM for two days, T60 will form crystals, likely due to the altered pH values by the cells that induce T60 precipitation. […] These improvements in solubility allow higher doses of compounds to be used to treat cancer cells to reach maximum tumor suppression.
# full-length TOP2A [8] = molecular target: T5, full-length TOP2A (Homo sapiens, UniProt P11388); test: EMSA, full-length TOP2A with 5ZRF DNA oligo; assay type: binding; parameters: EMSA was performed by purified full-length TOP2A or TOP2B proteins; conditions: 200 µM compound, 300 nM protein, 100 nM oligo
# T5 sequence (P11388 whole entry): as the sequence (P11388 whole entry) above
# Experimental: as §1
# human TOP2A(431-1193) [9] = molecular target: T1, human TOP2A(431-1193); test: EMSA, TOP2A(431-1193) with 5ZRF DNA oligo; assay type: binding; conditions: 2 uM protein, 300 nM oligo
# TOP2A [10] = molecular target: T2, TOP2A; test: Supercoiled plasmid DNA relaxation assay, TOP2A; assay type: biochemical; conditions: 0.01-200 uM, three biological repeats
# Experimental: as §2
# full-length TOP2A [11] = molecular target: T5, full-length TOP2A; test: DNA cleavage assay, TOP2A; assay type: biochemical; parameters: DNA cleavage assays were performed using full-length human TOP2A and TOP2B; conditions: 200 µM etoposide plus 1, 100 or 200 µM compound, pHOT plasmid
# Experimental: as §1
# full-length TOP2B [12] = molecular target: T4, full-length TOP2B; test: DNA cleavage assay, TOP2B; assay type: biochemical; parameters: DNA cleavage assays were performed using full-length human TOP2A and TOP2B; conditions: 200 µM etoposide plus 1, 100 or 200 µM compound, pHOT plasmid
# Experimental: as §1
# K562 cells [13] = test: Immunoblotting of p-H2AXγ (DNA damage); conditions: K562, 10-20 µM, 4 h
# Experimental: as §5
# human TOP2A(431-1193) [14] = molecular target: T1, human TOP2A(431-1193); test: Microscale thermophoresis (MST) binding assay; conditions: 5 nM NT647-labelled TOP2A(431-1193)
# Experimental: It was transformed into BL21 (DE3) E. coli cells and induced by 0.5 mM IPTG for 16 h at 16 °C. Cells were lysed by sonication and protein purification was by chromatography with the Ni-NTA beads (Invitrogen), followed by a size exclusion chromatography (Superdex 200). […] A serial dilution of the inhibitors was prepared with 100% DMSO and subsequently mixed with the labeled fluorescent protein in the assay buffer (20 mM Tris pH 8.0, 100 mM NaCl, 0.1% NP40, 0.2 mM TCEP, and 0.1 mM PMSF) at the final concentrations of 0.015–500 uM. The final concentration of the protein was 5 nM. The labeled protein and small molecules mix were allowed to incubate in the dark at room temperature for 5 min before filling the capillaries. MST assays were performed with 5–20% LED/excitation power and medium MST power using premium capillaries for Monolith NT.115. The data for the estimation of Kd were analyzed using MO Affinity Analysis software from Nanotemper.
# as §4
# TOP2A(431-1193) = TOP2A(431-1193) (Homo sapiens, UniProt P11388 431-1193); test: fluorescence polarization; merbarone 0.01-200 uM; 3 mM Mg2+; FP: 20 mM HEPES-NaOH pH 7.4, 2 mM DTT, 3 mM MgCl2, 0.05% NP-40, protease inhibitors, room temperature 20 min; EMSA buffer not in material; conditions: protein: recombinant; tags: N-terminal 6xHis (pET28a); label: 3' 6-FAM (Results text says NT474 dye); blunt; self-complementary 20-mer, 2 copies
# Chain of TOP2A(431-1193) (P11388 431-1193): as the sequence (P11388 431-1193) above
# [15] = RPMI1640 plus 5% charcoal-stripped serum, plasma or biological fluid, cell culture media with serum, read-out: Solubility Media/FBS
# [16] = methanol, organic solvent or mixture, methanol, read-out: Solubility Methanol
# [17] = phosphate-buffered saline, aqueous buffer, PBS, read-out: Solubility PBS
molecule,measurement,setting,value
O=C(Nc1ccc(Nc2ccccc2)cc1)c1ccc[nH]c1=S [T60],solubility at 1 h,Solubility by LC/MS/MS; [15],206 µM
same,Solubility Media/FBS,Solubility by LC/MS/MS; cell culture media with serum,~ 200 uM
same,solubility at 1 h,Solubility by LC/MS/MS; [16],> 1000 µM
same,solubility at 1 h,Solubility by LC/MS/MS; [17],5.8 µM
same,Effect on TOP2A-DNA interaction (FP),human TOP2A(431-1193) [1],reduced the TOP2A–DNA interaction in a dose-dependent manner
same,half-life at 1 uM,in vitro,51 min
same,microsomal CLint at 1 uM,in vitro,46 µL/min/mg
same,inhibition at 20 µM,"K562 leukemia cells; K562, 24 h",~38%
same,inhibition at 20 µM,"K562 leukemia cells; K562, 48 h",71%
same,inhibition at 20 µM,"K562 leukemia cells; K562, 72 h",86%
same,IC50,TOP2A [2],~0.3 µM
same,IC50,TOP2B [3],~3.1 µM
same,Block of TOP2B-DNA oligo complex formation (EMSA),full-length TOP2B [4],block
same,IC50,TOP2B [5],~8.9 µM
same,Fluorescence induced by the ethidium bromide/DNA complex reduced by increasing doses (DNA intercalation),salmon sperm DNA,not
same,"Cytotoxicity (LDH release), in words",K562 cells [6],not observed
same,Concentration at which the compound forms crystals in culture media with growing cells,[7]; cells treated for two days,≥ 50 µM
same,Block of TOP2A-DNA oligo complex formation (EMSA),full-length TOP2A [8],block
same,Inhibition of TOP2A(431-1193)-DNA interaction (EMSA),human TOP2A(431-1193) [9],inhibited TOP2A–DNA interaction dose-dependently
same,IC50,TOP2A [10],4.7 µM
CC(=O)Nc1cc(Nc2ccccc2)ccc1NC(=O)c1ccc[nH]c1=S [T637],solubility at 1 h,Solubility by LC/MS/MS; [15],707 µM
same,solubility at 1 h,Solubility by LC/MS/MS; [16],> 1000 µM
same,solubility at 1 h,Solubility by LC/MS/MS; [17],20 µM
same,Effect on TOP2A-DNA interaction (FP),human TOP2A(431-1193) [1],reduced the TOP2A–DNA interaction in a dose-dependent manner
same,half-life at 1 uM,in vitro,20 min
same,microsomal CLint at 1 uM,in vitro,116 µL/min/mg
same,Maximum cell proliferation inhibition,K562 leukemia cells; 48 h,100%
same,Maximum cell proliferation inhibition,K562 leukemia cells; 72 h,100%
same,IC50,TOP2A [2],~1.4 µM
same,IC50,TOP2B [3],~8.9 µM
same,Block of TOP2B-DNA oligo complex formation (EMSA),full-length TOP2B [4],block
same,IC50,TOP2B [5],~18.6 µM
same,Fluorescence induced by the ethidium bromide/DNA complex reduced by increasing doses (DNA intercalation),salmon sperm DNA,not
same,"Cytotoxicity (LDH release), in words",K562 cells [6],not observed
same,"Crystal formation in cell cultures, in words",[7]; up to 100 uM,no crystal formation
same,"Prevention of etoposide-induced DNA cleavage, TOP2A",full-length TOP2A [11],did prevent etoposide-induced DNA cleavage
same,Block of TOP2A-DNA oligo complex formation (EMSA),full-length TOP2A [8],block
same,Inhibition of TOP2A(431-1193)-DNA interaction (EMSA),human TOP2A(431-1193) [9],inhibited TOP2A–DNA interaction dose-dependently
same,IC50,TOP2A [10],16.8 µM
same,"Prevention of etoposide-induced DNA cleavage, TOP2B",full-length TOP2B [12],did prevent etoposide-induced DNA cleavage
same,Intracellular DNA damage (phospho-H2AXγ protein levels),K562 cells [13],do not cause intracellular DNA damage
CNC(=O)c1ccc(N2C(=S)N(c3ccc(C#N)c(C(F)(F)F)c3)C(=O)C2(C)C)cc1F [enzalutamide],"Binding to TOP2A(431-1193) by MST (change of thermophoresis), in words",human TOP2A(431-1193) [14],no alteration of thermophoresis
"COc1cc([C@@H]2c3cc4c(cc3[C@@H](O[C@@H]3O[C@@H]5CO[C@@H](C)O[C@H]5[C@H](O)[C@H]3O)[C@H]3COC(=O)[C@H]23)OCO4)cc(OC)c1O [etoposide, reference compound]",Cytotoxicity (LDH release),"K562 cells [6]; K562, 20 uM, two days",up to 70%
"COc1cc(NS(C)(=O)=O)ccc1Nc1c2ccccc2nc2ccccc12 [m-AMSA, amsacrine, reference compound]",Fluorescence induced by the ethidium bromide/DNA complex reduced by increasing doses (DNA intercalation),salmon sperm DNA,reduced
"O=C1NC(=S)NC(=O)C1C(=O)Nc1ccccc1 [merbarone, reference compound]",Effect on TOP2A-DNA interaction (FP),human TOP2A(431-1193) [1],did not affect TOP2A–DNA interaction
same,"Binding to TOP2A(431-1193) by MST (change of thermophoresis), in words",human TOP2A(431-1193) [14],no interaction
same,Inhibition of TOP2A(431-1193)-DNA interaction (EMSA),human TOP2A(431-1193) [9],did not affect the formation of the TOP2–DNA complex
ICRF193 [reference compound],"Prevention of etoposide-induced DNA cleavage, TOP2A",full-length TOP2A [11],did not prevent etoposide-induced DNA cleavage
same,Block of TOP2A-DNA oligo complex formation (EMSA),full-length TOP2A [8],not
same,"Prevention of etoposide-induced DNA cleavage, TOP2B",full-length TOP2B [12],did not prevent etoposide-induced DNA cleavage
B1,binding result,TOP2A(431-1193),binds

# From paper PMC8345109, “Optimization of New Catalytic Topoisomerase II Inhibitors as an Anti-Cancer Therapy” (Cancers, 2021)
